pIC50: −log10 of the molar value. Values after ≈ are worked out from the molar mass of the structure shown.
Tests used:
Pseudomonas aeruginosa = experiment: Antibacterial activity against Pseudomonas aeruginosa ATCC 27853 after 24 hrs by MTT assay; type: functional; settings: ATCC 27853, 24 h
Bacillus subtilis = experiment: Antibacterial activity against Bacillus subtilis ATCC 530 after 24 hrs by MTT assay; type: functional; settings: ATCC 530, 24 h
Escherichia coli = experiment: Antibacterial activity against Escherichia coli ATCC 25922 after 24 hrs by MTT assay; type: functional; settings: ATCC 25922, 24 h
[1] = Toxicity in RBC assessed as concentration required for 30% hemolysis; type: cell-based; settings: erythrocyte
Staphylococcus aureus = experiment: Antibacterial activity against Staphylococcus aureus ATCC 6538 after 24 hrs by MTT assay; type: functional; settings: ATCC 6538, 24 h
[2] = Inhibition of Escherichia coli FabH expressed in Escherichia coli BL21(DE3) using holo-ACP as substrate after 25 mins

Structure (SMILES)	MIC (Pseudomonas aeruginosa) [µg/mL]	MIC (Bacillus subtilis) [µg/mL]	MIC (Escherichia coli) [µg/mL]	HC30 [1] [mg/mL]	MIC (Staphylococcus aureus) [µg/mL]	pIC50 [2]
Cc1ccc(C2=NN(C3=NC(=O)CS3)C(c3ccco3)C2)cc1 (stereo not given)	6.25 (≈ 19.2 µM)	3.13 (≈ 9.62 µM)	3.13 (≈ 9.62 µM)	> 10	6.25 (≈ 19.2 µM)	4.74
COc1ccc(C2=NN(c3nc(-c4ccc(OC)cc4)cs3)C(c3cccs3)C2)cc1 (stereo not given)	12.5 (≈ 27.9 µM)	50 (≈ 112 µM)	12.5 (≈ 27.9 µM)	–	12.5 (≈ 27.9 µM)	–
Brc1ccc(C2=NN(c3nc(-c4ccccc4)cs3)C(c3ccco3)C2)cc1 (stereo not given)	3.13 (≈ 6.95 µM)	3.13 (≈ 6.95 µM)	3.13 (≈ 6.95 µM)	> 10	1.56 (≈ 3.46 µM)	5.01
NC[C@H]1O[C@H](O[C@H]2[C@H](O)[C@@H](O[C@H]3O[C@H](CO)[C@@H](O)[C@H](N)[C@H]3O)[C@H](N)C[C@@H]2N)[C@H](N)[C@@H](O)[C@@H]1O [BEKANAMYCIN]	1.56 (≈ 3.23 µM)	3.13 (≈ 6.47 µM)	1.56 (≈ 3.23 µM)	–	3.13 (≈ 6.47 µM)	–
Cc1ccc(C2=NN(C3=NC(=O)CS3)C(c3ccccc3)C2)cc1 (stereo not given)	12.5 (≈ 37.3 µM)	12.5 (≈ 37.3 µM)	12.5 (≈ 37.3 µM)	–	6.25 (≈ 18.6 µM)	–
COc1ccc(-c2csc(N3N=C(c4ccc(F)cc4)CC3c3ccco3)n2)cc1 (stereo not given)	6.25 (≈ 14.9 µM)	12.5 (≈ 29.8 µM)	6.25 (≈ 14.9 µM)	–	12.5 (≈ 29.8 µM)	–
COc1ccc(C2=NN(C3=NC(=O)CS3)C(c3cccs3)C2)cc1 (stereo not given)	> 50	50 (≈ 140 µM)	12.5 (≈ 35 µM)	> 10	12.5 (≈ 35 µM)	4.05
Fc1ccc(C2=NN(c3nc(-c4ccccc4)cs3)C(c3cccs3)C2)cc1 (stereo not given)	12.5 (≈ 30.8 µM)	50 (≈ 123 µM)	12.5 (≈ 30.8 µM)	–	12.5 (≈ 30.8 µM)	–
O=C1CSC(N2N=C(c3ccc(F)cc3)CC2c2ccco2)=N1 (stereo not given)	6.25 (≈ 19 µM)	3.13 (≈ 9.5 µM)	3.13 (≈ 9.5 µM)	> 10	3.13 (≈ 9.5 µM)	5.08
Clc1ccc(C2=NN(c3nc(-c4ccccc4)cs3)C(c3cccs3)C2)cc1Cl (stereo not given)	12.5 (≈ 27.4 µM)	12.5 (≈ 27.4 µM)	50 (≈ 110 µM)	> 10	> 50	< 3.82
Fc1ccc(C2=NN(c3nc(-c4ccccc4)cs3)C(c3ccco3)C2)cc1 (stereo not given)	12.5 (≈ 32.1 µM)	50 (≈ 128 µM)	6.25 (≈ 16 µM)	> 10	6.25 (≈ 16 µM)	4.65
COc1ccc(-c2csc(N3N=C(c4ccc(Cl)c(Cl)c4)CC3c3cccs3)n2)cc1 (stereo not given)	12.5 (≈ 25.7 µM)	12.5 (≈ 25.7 µM)	50 (≈ 103 µM)	> 10	50 (≈ 103 µM)	< 3.82
Cc1ccc(C2=NN(C3=NC(=O)CS3)C(c3cccs3)C2)cc1 (stereo not given)	6.25 (≈ 18.3 µM)	6.25 (≈ 18.3 µM)	6.25 (≈ 18.3 µM)	> 10	3.13 (≈ 9.17 µM)	4.87
COc1ccc(-c2csc(N3N=C(c4ccc(C)cc4)CC3c3ccco3)n2)cc1 (stereo not given)	3.13 (≈ 7.53 µM)	6.25 (≈ 15 µM)	3.13 (≈ 7.53 µM)	> 10	6.25 (≈ 15 µM)	4.80
Clc1ccc(C2=NN(c3nc(-c4ccccc4)cs3)C(c3ccco3)C2)cc1Cl (stereo not given)	> 50	12.5 (≈ 28.4 µM)	12.5 (≈ 28.4 µM)	–	12.5 (≈ 28.4 µM)	–
O=C1CSC(N2N=C(c3ccc(Cl)c(Cl)c3)CC2c2ccco2)=N1 (stereo not given)	12.5 (≈ 32.9 µM)	12.5 (≈ 32.9 µM)	12.5 (≈ 32.9 µM)	–	6.25 (≈ 16.4 µM)	–
COc1ccc(-c2csc(N3N=C(c4ccc(Br)cc4)CC3c3ccco3)n2)cc1 (stereo not given)	6.25 (≈ 13 µM)	6.25 (≈ 13 µM)	6.25 (≈ 13 µM)	> 10	12.5 (≈ 26 µM)	4.71
O=C1CSC(N2N=C(c3ccc(F)cc3)CC2c2cccs2)=N1 (stereo not given)	> 50	12.5 (≈ 36.2 µM)	6.25 (≈ 18.1 µM)	–	12.5 (≈ 36.2 µM)	–
Cc1ccc(C2=NN(c3nc(-c4ccccc4)cs3)C(c3ccccc3)C2)cc1 (stereo not given)	12.5 (≈ 31.6 µM)	12.5 (≈ 31.6 µM)	6.25 (≈ 15.8 µM)	–	12.5 (≈ 31.6 µM)	–
O=C1CSC(N2N=C(c3ccc(Cl)c(Cl)c3)CC2c2cccs2)=N1 (stereo not given)	12.5 (≈ 31.5 µM)	> 50	12.5 (≈ 31.5 µM)	–	12.5 (≈ 31.5 µM)	–
Cc1ccc(C2=NN(c3nc(-c4ccccc4)cs3)C(c3ccco3)C2)cc1 (stereo not given)	1.56 (≈ 4.05 µM)	3.13 (≈ 8.12 µM)	1.56 (≈ 4.05 µM)	> 10	1.56 (≈ 4.05 µM)	5.34
Cc1ccc(C2=NN(c3nc(-c4ccccc4)cs3)C(c3cccs3)C2)cc1 (stereo not given)	1.56 (≈ 3.88 µM)	3.13 (≈ 7.79 µM)	3.13 (≈ 7.79 µM)	> 10	1.56 (≈ 3.88 µM)	4.96
COc1ccc(-c2csc(N3N=C(c4ccc(Br)cc4)CC3c3cccs3)n2)cc1 (stereo not given)	12.5 (≈ 25.2 µM)	12.5 (≈ 25.2 µM)	6.25 (≈ 12.6 µM)	–	12.5 (≈ 25.2 µM)	–
O=C1CSC(N2N=C(c3ccc(Br)cc3)CC2c2cccs2)=N1 (stereo not given)	6.25 (≈ 15.4 µM)	12.5 (≈ 30.8 µM)	6.25 (≈ 15.4 µM)	> 10	12.5 (≈ 30.8 µM)	4.57
COc1ccc(-c2csc(N3N=C(c4ccc(C)cc4)CC3c3cccs3)n2)cc1 (stereo not given)	12.5 (≈ 29 µM)	6.25 (≈ 14.5 µM)	6.25 (≈ 14.5 µM)	–	12.5 (≈ 29 µM)	–
COc1ccc(C2=NN(c3nc(-c4ccccc4)cs3)C(c3cccs3)C2)cc1 (stereo not given)	50 (≈ 120 µM)	12.5 (≈ 29.9 µM)	6.25 (≈ 15 µM)	> 10	6.25 (≈ 15 µM)	4.51
COc1ccc(-c2csc(N3N=C(c4ccc(Cl)c(Cl)c4)CC3c3ccco3)n2)cc1 (stereo not given)	> 50	> 50	50 (≈ 106 µM)	–	12.5 (≈ 26.6 µM)	–
Brc1ccc(C2=NN(c3nc(-c4ccccc4)cs3)C(c3cccs3)C2)cc1 (stereo not given)	12.5 (≈ 26.8 µM)	6.25 (≈ 13.4 µM)	6.25 (≈ 13.4 µM)	> 10	12.5 (≈ 26.8 µM)	4.63
COc1ccc(-c2csc(N3N=C(c4ccc(F)cc4)CC3c3cccs3)n2)cc1 (stereo not given)	12.5 (≈ 28.7 µM)	12.5 (≈ 28.7 µM)	12.5 (≈ 28.7 µM)	–	12.5 (≈ 28.7 µM)	–
O=C1CSC(N2N=C(c3ccc(Br)cc3)CC2c2ccco2)=N1 (stereo not given)	12.5 (≈ 32 µM)	12.5 (≈ 32 µM)	6.25 (≈ 16 µM)	–	6.25 (≈ 16 µM)	–

Source: ChEMBL document CHEMBL2046396, “Discovery and modification of sulfur-containing heterocyclic pyrazoline derivatives as potential novel class of β-ketoacyl-acyl carrier protein synthase III (FabH) inhibitors” (Bioorg Med Chem Lett, 2012)
